The text below walks through data of PMC6736568, “Discovery of Novel Anti-cryptosporidial Activities From Natural Products by in vitro High-Throughput Phenotypic Screening” (Frontiers in Microbiology, 2019).

In data set [1] the test system is Cryptosporidium parvum. Briefly: qRT-PCR assay of the growth of C. parvum in vitro in HCT-8 host cells (primary and secondary screening, EC50). The class given is cell-based. The following applies: Cryptosporidium parvum, HCT-8; for inhibition at 10 µM: primary screening at 10 uM, read-out: Inhibition (%).
Data set [2] concerns HCT-8 host cells (Hs18S).
Data set [3] can be described thus: in vitro. The following applies: for cytotoxicity at 41 h, 10 µM: human.
The mark [4] stands for this setting: primary screening at 10 uM, treated vs control.

Molecules are shown by their SMILES. Counter-ions that a name gives are not always drawn. Like-named read-outs stand apart in the source and are kept apart here.

As to `COC(=O)CC[C@@H](C)[C@H]1CC[C@H]2[C@@H]3CC[C@@H]4C[C@H](O)CC[C@]4(C)[C@H]3C[C@H](O)[C@]12C` [METHYL DEOXYCHOLATE], the inhibition (as a rule, the change of the read-out against control, counted positive when it falls) at 10 µM in data set [1] stood at 23.4%. The “Hs18S ΔCT” value in data set [2] (human, 41 h, 10 μM) came to 0.66. Moreover, in data set [3], the cytotoxicity at 41 h, 10 µM was 36.7%.

Take `COC(=O)c1c(C)cc(O)cc1O` [METHYL ORSELLINATE]: the inhibition at 10 µM in data set [1] was -34.8%. In addition, the “Hs18S ΔCT” value in data set [2] (human, 41 h, 10 μM) is listed as 0.31. In addition, the cytotoxicity at 41 h, 10 µM in data set [3] stood at 19.6%.

With `COc1c2c(cc3occ(-c4ccc5c(c4)OCO5)c(=O)c13)OC(C)(C)C=C2` [METHYL ROBUSTONE], in data set [1], the inhibition at 10 µM is -44.6%. For the same compound, the “Hs18S ΔCT” value in data set [2] (human, 41 h, 10 μM) is given as -0.08. Besides, the cytotoxicity at 41 h, 10 µM in data set [3] is -5.4%.

Turning to `CC[C@H](C)C(=O)O[C@H]1CCC=C2C=C[C@H](C)[C@H](CC[C@@H]3C[C@@H](O)CC(=O)O3)[C@H]21` [MEVASTATIN], the inhibition at 10 µM in data set [1] was 24%. Also, the “Hs18S ΔCT” value in data set [2] (human, 41 h, 10 μM) is reported as 0.22. For the same compound, the cytotoxicity at 41 h, 10 µM in data set [3] was 14.4%.

In the case of `COC(=O)C[C@H]1C(C)(C)C(=O)[C@@H]2CC3=C4CC(=O)O[C@@H](c5ccoc5)[C@]4(C)CC[C@@H]3[C@@]1(C)C2=O` [MEXICANOLIDE], the inhibition at 10 µM in data set [1] was determined as 31.5%. For the same compound, in data set [2] (human, 41 h, 10 μM), the “Hs18S ΔCT” value was -0.17. In addition, in data set [3], the cytotoxicity at 41 h, 10 µM is -12.3%.

With `NC(Cn1ccc(=O)c(O)c1)C(=O)O` (stereo not shown) [MIMOSINE], the inhibition at 10 µM in data set [1] is -22%. The “Hs18S ΔCT” value in data set [2] (human, 41 h, 10 μM) is listed as -0.01. For the same compound, the cytotoxicity at 41 h, 10 µM in data set [3] was -0.4%.

Regarding `C[C@H]1C(=O)O[C@@H]2CCN3CC=C(COC(=O)[C@](C)(O)[C@]1(C)O)[C@H]23` [MONOCROTALINE], the inhibition at 10 µM in data set [1] was found to be 12%. In addition, in data set [2] (setting [4]), the “Hs18S ΔCT” value amounted to 0.14. For the same compound, the cytotoxicity at 10 µM in data set [3] was found to be 9.5%.

Consider `O=c1c(O)c(-c2ccc(O)cc2O)oc2cc(O)cc(O)c12` [MORIN], for which the inhibition at 10 µM in data set [1] was found to be 32.3%. Further, in data set [2] (setting [4]), the “Hs18S ΔCT” value is given as -0.21. Moreover, the cytotoxicity at 10 µM in data set [3] is -15.6%.

As for `O=C(O)[C@@H](O)[C@H](O)[C@H](O)[C@@H](O)C(=O)O` [MUCIC ACID], the inhibition at 10 µM in data set [1] is -14.3%. Also, the “Hs18S ΔCT” value in data set [2] (human, 41 h, 10 μM) is given as -0.19. Besides, in data set [3], the cytotoxicity at 41 h, 10 µM is -13.8%.

With `COc1ccc2c(c1)O[C@@H]1COc3cc(OC)c(OC)cc3[C@@H]1C2=O` [MUNDOSERONE], in data set [1], the inhibition at 10 µM is 13.7%. Besides, in data set [2] (setting [4]), the “Hs18S ΔCT” value was 0.17. Besides, the cytotoxicity at 10 µM in data set [3] is 11.4%.

For the compound `COc1c(-c2coc3cc4c(cc3c2=O)CC(OC(C)=O)C(C)(C)O4)ccc2c1C=CC(C)(C)O2` (stereo not shown) [MUNDULONE ACETATE], the inhibition at 10 µM in data set [1] is -3.19%. Besides, the “Hs18S ΔCT” value in data set [2] (human, 41 h, 10 μM) is recorded as 0.37. In data set [3], the cytotoxicity at 41 h, 10 µM turned out to be 22.6%.

Consider `COc1c(-c2coc3cc4c(cc3c2=O)CC(O)C(C)(C)O4)ccc2c1C=CC(C)(C)O2` (stereo not shown) [MUNDULONE], for which the inhibition at 10 µM in data set [1] worked out at 61.8%. In data set [1] (secondary screening at 3.3 uM, read-out: % Inhibition (3.3 uM)), the inhibition at 3.3 µM was -43%. In addition, the “Hs18S ΔCT” value in data set [2] (human, 41 h, 10 μM) was 0.22. Further, the cytotoxicity at 41 h, 10 µM in data set [3] came out at 14.4%.

With `C/C(=C\C(=O)OCCCCCCCCC(=O)O)C[C@@H]1OC[C@H](C[C@@H]2O[C@H]2[C@@H](C)[C@H](C)O)[C@@H](O)[C@H]1O` [MUPIROCIN], the inhibition at 10 µM in data set [1] stood at 45.6%. Moreover, in data set [2] (human, 41 h, 10 μM), the “Hs18S ΔCT” value amounted to 0.09. In data set [3], the cytotoxicity at 41 h, 10 µM is 5.8%.

Consider `CC1=CC2C(CC1=O)C(C)=CCC2C(C)C` (stereo not shown) [MUUROLLADIE-3-ONE], for which the inhibition at 10 µM in data set [1] was -7.55%. Also, the “Hs18S ΔCT” value in data set [2] (human, 41 h, 10 μM) is on record as -0.02. Also, the cytotoxicity at 41 h, 10 µM in data set [3] was -1.7%.

With `COc1c(C)c2c(c(O)c1C/C=C(\C)CCC(=O)O)C(=O)OC2` [MYCOPHENOLIC ACID], the inhibition at 10 µM in data set [1] worked out at 44.4%. In addition, the “Hs18S ΔCT” value in data set [2] (human, 41 h, 10 μM) amounted to 1.03. Besides, in data set [3], the cytotoxicity at 41 h, 10 µM was determined as 51.1%.

On to `c1cncc(C2=NCCC2)c1` [MYOSMINE], for which, in data set [1], the inhibition at 10 µM was -17.6%. Also, in data set [2] (setting [4]), the “Hs18S ΔCT” value amounted to 0.07. The cytotoxicity at 10 µM in data set [3] was found to be 4.5%.

Turning to `C=CCN1CC[C@]23c4c5ccc(O)c4O[C@H]2C(=O)CC[C@@]3(O)[C@H]1C5` [NALOXONE HYDROCHLORIDE], the inhibition at 10 µM in data set [1] was determined as 21.9%. For the same compound, the “Hs18S ΔCT” value in data set [2] (setting [4]) is 0.20. Moreover, the cytotoxicity at 10 µM in data set [3] amounted to 12.7%.

Turning to `O=C1C[C@@H](c2ccc(O)cc2)Oc2cc(O)cc(O)c21` [NARINGENIN], in data set [1], the inhibition at 10 µM came out at 47.6%. Further, in data set [2] (setting [4]), the “Hs18S ΔCT” value was -0.23. For the same compound, the cytotoxicity at 41 h, 10 µM in data set [3] was -17.3%.

`C[C@@H]1O[C@@H](O[C@H]2[C@H](Oc3cc(O)c4c(c3)O[C@H](c3ccc(O)cc3)CC4=O)O[C@H](CO)[C@@H](O)[C@@H]2O)[C@H](O)[C@H](O)[C@H]1O` [NARINGIN]: in data set [1], the inhibition at 10 µM was found to be 2.06%. Further, the “Hs18S ΔCT” value in data set [2] (human, 41 h, 10 μM) is 0.16. Further, the cytotoxicity at 41 h, 10 µM in data set [3] was determined as 10.4%.

In the case of `CC(C)=CCC/C(C)=C\CO` [NEROL], the inhibition at 10 µM in data set [1] is -20.6%. Further, the “Hs18S ΔCT” value in data set [2] (human, 41 h, 10 μM) was determined as 0.43. The cytotoxicity at 41 h, 10 µM in data set [3] was 25.8%.
